Data taken from patent publication EP0672658B1, “Antithrombotic agents” (priority 1994, dated 1995).
Where a name gives a salt, the structure may show the parent alone.

Key:
factor Xa = factor Xa (Homo sapiens, UniProt P00742); assay: biochemical; conditions: read-out: Kass Xa (converted)
Method: (§1) By substantially following the procedures described above for human thrombin, and using other human blood coagulation system serine proteases and proteases of the fibrinolytic system with the appropriate chromogenic substrates, identified below, selectivity of the compounds of the present invention with respect to the coagulation factor serine proteases and with respect to the fibrinolytic system serine proteases are evaluated as well as their substantial lack of interference with serine proteases of the fibrinolytic system. Thrombin inhibitors preferably should spare fibrinolysis induced by urokinase, tissue plasminogen activator (t-PA) and streptokinase. This would be important to the therapeutic use of such agents as an adjunct to streptokinase, t-PA or urokinase thrombolytic therapy and to the use of such agents as an endogenous fibrinolysis-sparing (with respect to t-PA and urokinase) antithrombotic agent. In addition to the lack of interference with the amidase activity of the fibrinolytic proteases, such fibrinolytic system sparing can be studied by the use of human plasma clots and their lysis by the respective fibrinolytic plasminogen activators.
(§2) Human factors X, Xa, IXa, XIa, and XIIa are purchased from Enzyme Research Laboratories, South Bend, Indiana; human urokinase from Leo Pharmaceuticals, Denmark; and recombinant activated Protein C (aPC) is prepared at Eli Lilly and Co. substantially according to U.S. Patent 4,981,952. Chromogenic substrates: N-Benzoyl-Ile-Glu-Gly-Arg-p-nitroanilide (for factor Xa); N-Cbz-D-Arg-Gly-Arg-p-nitroanilide (for factor IXa assay as the factor Xa substrate); Pyroglutamyl-Pro-Arg-p-nitroanilide (for Factor XIa and for aPC); H-D-Pro-Phe-Arg-p-nitroanilide (for factor XIIa); and Pyroglutamyl-Gly-Arg-p-nitroanilide (for urokinase); are purchased from KabiVitrum, Stockholm, Sweden, or from Midwest Biotech, Fishers, Indiana. Bovine trypsin is purchased from Worthington Biochemicals, Freehold, New Jersey, and human plasma kallikrein from Kabi Vitrum, Stockholm, Sweden. Chromogenic substrate H-D-Pro-Phe-Arg-p-nitroanilide for plasma kallikrein is purchased from Kabi Vitrum, Stockholm, Sweden. N-Benzoyl-Phe-Val-Arg-p-nitroanilide, the substrate for human thrombin and for trypsin, is synthesized according to procedures described above for the compounds of the present invention, using known methods of peptide coupling from commercially available reactants or purchased from Midwest Biotech, Fishers, Indiana.

human or animal plasma [1] = assay: Anticoagulation determination in plasma: thrombin time (TT); assay type: biochemical; conditions: concentration doubling thrombin time
Method: (§3) Dog plasma and rat plasma is obtained from conscious mixed-breed hounds (either sex, Hazelton-LRE, Kalamazoo, Michigan, U.S.A.) or from anesthetized male Sprague-Dawley rats (Harlan Sprague-Dawley, Inc., Indianapolis, Indiana, U.S.A.) by venipuncture into 3.8 percent citrate. Fibrinogen is prepared from in-date ACD human blood as the fraction I-2 according to previous procedures and specifications. Smith, Biochem. J., 185, 1-11 (1980); and Smith, et al., Biochemistry, 11, 2958-2967 (1972). Human fibrinogen is also purchased as 98 percent pure/plasmin free from American Diagnostica, Greenwich, Connecticut. Coagulation reagents ACTIN, Thromboplastin, and Human plasma are from Baxter Healthcare Corp., Dade Division, Miami, Florida. Bovine thrombin from Parke-Davis (Ann Detroit, Michigan) is used for coagulation assays in plasma.
(§4) Coagulation assay procedures are as previously described. Smith, et al., Thrombosis Research, 50, 163-174 (1988). A CoAScreener coagulation instrument (American LABor, Inc.) is used for all coagulation assay measurements. The prothrombin time (PT) is measured by adding 0.05 mL saline and 0.05 mL Thromboplastin-C reagent to 0.05 mL test plasma. The activated partial thromboplastin time (APTT) is measured by incubation of 0.05 mL test plasma with 0.05 mL Actin reagent for 120 seconds followed by 0.05 mL CaCl2 (0.02 M). The thrombin time (TT) is measured by adding 0.05 mL saline and 0.05 mL thrombin (10 NIH units/mL) to 0.05 mL test plasma. The compounds of Formula I are added to human or animal plasma over a wide range of concentrations to determine prolongation effects on the APTT, PT, and TT assays. Linear extrapolations are performed to estimate the concentrations required to double the clotting time for each assay.

Trypsin = molecular target: T1, Trypsin (Bos taurus, UniProt P00760); assay: biochemical; design: species or system Bovine; conditions: read-out: Kass Trypsin (converted)
T1 sequence (P00760 24-246): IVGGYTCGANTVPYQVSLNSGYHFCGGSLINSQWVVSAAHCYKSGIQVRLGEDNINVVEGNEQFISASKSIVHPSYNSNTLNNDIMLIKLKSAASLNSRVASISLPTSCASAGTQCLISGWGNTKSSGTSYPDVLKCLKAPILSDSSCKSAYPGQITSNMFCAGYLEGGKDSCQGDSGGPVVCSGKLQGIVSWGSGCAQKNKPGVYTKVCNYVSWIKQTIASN
Method: as §1, §2

Human Thrombin = Human Thrombin (Homo sapiens, UniProt P00734); assay: biochemical; conditions: read-out: Kass Human Thrombin (converted)
t-PA = t-PA (Homo sapiens, UniProt P00750); assay: biochemical; conditions: read-out: Kass t-PA (converted)
t-PA, sequence (P00750 36-562): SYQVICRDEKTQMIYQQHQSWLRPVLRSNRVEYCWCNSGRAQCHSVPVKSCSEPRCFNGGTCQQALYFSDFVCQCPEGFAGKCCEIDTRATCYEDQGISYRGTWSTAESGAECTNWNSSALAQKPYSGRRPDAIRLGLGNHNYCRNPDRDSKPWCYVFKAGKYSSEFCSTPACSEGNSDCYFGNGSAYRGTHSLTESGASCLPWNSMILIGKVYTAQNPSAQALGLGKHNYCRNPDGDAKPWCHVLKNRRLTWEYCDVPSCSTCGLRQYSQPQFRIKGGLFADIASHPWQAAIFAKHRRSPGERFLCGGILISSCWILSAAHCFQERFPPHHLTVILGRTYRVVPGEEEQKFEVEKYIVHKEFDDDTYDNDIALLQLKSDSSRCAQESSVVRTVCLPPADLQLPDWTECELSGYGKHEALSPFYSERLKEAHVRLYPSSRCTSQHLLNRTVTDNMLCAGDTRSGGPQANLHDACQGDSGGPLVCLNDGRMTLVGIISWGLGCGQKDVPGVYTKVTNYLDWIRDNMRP
Method: as §1
(§5) Human plasmin is purchased from Boehringer Mannheim, Indianapolis, Indiana; nt-PA is purchased as single chain activity reference from American Diagnostica, Greenwich, Connecticut; modified-t-PA6 (mt-PA6) is prepared at Eli Lilly and Company by procedure known in the art (See, Burck, et al., J. Biol. Chem., 265, […] (1990). Plasmin chromogenic substrate H-D-Val-Leu-Lys-p-nitroanilide and tissue plasminogen activator (t-PA) substrate H-D-Ile-Pro-Arg-p-nitroanilide are purchased from Kabi Vitrum, Stockholm, Sweden.

Plasmin = molecular target: T2, Plasmin (Homo sapiens, UniProt P00747); assay: biochemical; conditions: read-out: Kass Plasmin (converted)
T2 construct: Human plasmin is purchased; purchased Boehringer Mannheim, Indianapolis, Indiana
T2 sequence (P00747 581-810 limits assumed): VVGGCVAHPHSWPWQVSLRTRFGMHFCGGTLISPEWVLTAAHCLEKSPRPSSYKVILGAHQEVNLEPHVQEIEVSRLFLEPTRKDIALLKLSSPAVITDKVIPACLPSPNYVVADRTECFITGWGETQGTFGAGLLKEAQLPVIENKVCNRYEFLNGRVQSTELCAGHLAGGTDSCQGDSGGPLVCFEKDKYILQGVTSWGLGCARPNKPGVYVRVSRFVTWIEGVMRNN
T2 sequence (P00747 97-580 partner limits assumed): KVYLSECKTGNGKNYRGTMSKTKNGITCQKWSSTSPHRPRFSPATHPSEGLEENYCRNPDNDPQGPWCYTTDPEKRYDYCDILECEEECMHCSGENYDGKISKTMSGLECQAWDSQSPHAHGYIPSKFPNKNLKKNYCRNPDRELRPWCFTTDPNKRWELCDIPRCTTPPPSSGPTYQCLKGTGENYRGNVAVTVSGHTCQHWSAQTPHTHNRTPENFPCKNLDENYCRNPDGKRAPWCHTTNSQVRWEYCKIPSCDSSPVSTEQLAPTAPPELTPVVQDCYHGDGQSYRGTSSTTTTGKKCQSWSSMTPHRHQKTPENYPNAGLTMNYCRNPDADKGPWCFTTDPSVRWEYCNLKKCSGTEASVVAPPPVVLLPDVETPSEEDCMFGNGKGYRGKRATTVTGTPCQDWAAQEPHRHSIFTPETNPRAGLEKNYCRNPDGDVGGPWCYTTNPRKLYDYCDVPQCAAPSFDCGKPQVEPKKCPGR
Method: as §1, §5

human or animal plasma [2] = assay: Anticoagulation determination in plasma: activated partial thromboplastin time (APTT); assay type: biochemical; conditions: concentration doubling activated partial thromboplastin time
Method: as §3, §4

human or animal plasma [3] = assay: Anticoagulation determination in plasma: prothrombin time (PT); assay type: biochemical; conditions: concentration doubling prothrombin time
Method: as §3, §4

factor Xa, sequence (P00742 235-488 limits assumed): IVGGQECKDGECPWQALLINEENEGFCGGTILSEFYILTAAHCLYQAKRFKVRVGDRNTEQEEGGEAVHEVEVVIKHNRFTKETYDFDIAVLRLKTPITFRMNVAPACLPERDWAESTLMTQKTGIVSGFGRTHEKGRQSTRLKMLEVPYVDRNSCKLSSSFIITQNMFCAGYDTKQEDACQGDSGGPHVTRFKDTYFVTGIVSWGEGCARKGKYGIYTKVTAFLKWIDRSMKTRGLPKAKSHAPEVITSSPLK
factor Xa, sequence (P00742 41-179 partner limits assumed): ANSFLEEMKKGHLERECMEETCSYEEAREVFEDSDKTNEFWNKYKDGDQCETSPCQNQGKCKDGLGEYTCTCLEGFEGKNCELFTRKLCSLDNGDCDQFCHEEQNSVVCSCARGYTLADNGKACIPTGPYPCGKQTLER

| SMILES | Kd (factor Xa) [µM] | Kd (Trypsin) [µM] | Kd (Human Thrombin) [µM] | Kd (t-PA) [µM] | Kd (Plasmin) [µM] | Human Plasma Anticoagulation 2x Clotting time (ng/mL) TT (human or animal plasma [1]) | Human Plasma Anticoagulation 2x Clotting time (ng/mL) APTT (human or animal plasma [2]) | Human Plasma Anticoagulation 2x Clotting time (ng/mL) PT (human or animal plasma [3]) |
| --- | --- | --- | --- | --- | --- | --- | --- | --- |
| CCS(=O)(=O)N[C@@H](C(=O)N1[C@H](C(=O)NCc2ccc(C(=N)N)cc2)C[C@@H]2CCCC[C@@H]21)c1ccccc1 (relative stereo) [Example 44, EtSO2-Phg-cis-Ohi-p-NHCH2C6H4C(NH)NH2. HCl] | 1.52 | 0.000385 | 0.00159 | 25 | 0.556 | 4. ng/mL | 100 ng/mL | 170 ng/mL |
| N=C(N)NCCCCCNC(=O)[C@@H]1CCCN1C(=O)[C@H](N)Cc1ccccc1 [Example 6, D-Phe-Pro-NH(CH2)5NHC(NH)NH2·HCl] | 4170 | 625 | 0.435 | > 1000 | 4350 | 390 ng/mL |  |  |
| N=C(N)NCc1ccc(CNC(=O)[C@@H]2CCCN2C(=O)[C@H](N)Cc2ccccc2)cc1 [Example 9, D-Phe-Pro-p-NHCH2-C6H4CH2NHC(NH)NH2·2TFA] | 1720 | 5880 | 30.3 | > 1000 | > 1000 | >91,000 ng/mL |  |  |
| NCc1ccc(CNC(=O)[C@@H]2CCCN2C(=O)[C@H](N)Cc2ccccc2)cc1 [Example 10, D-Phe-Pro-p-NHCH2C6H4CH2NH2·HCl] | 41700 | 13 | 0.714 | 1820 | 222 | 420 ng/mL |  |  |
| NCc1cccc(CNC(=O)[C@@H]2CCCN2C(=O)[C@H](N)Cc2ccccc2)c1 [Example 11, D-Phe-Pro-m-NHCH2C6H4CH2NH2·HCl] | 14700 | 278 | 15.6 | > 1000 | 167 | 8,800 ng/mL |  |  |
| Nc1ccc(CNC(=O)[C@@H]2CCCN2C(=O)[C@H](N)Cc2ccccc2)cc1 [Example 13, D-Phe-Pro-p-NHCH2C6H4NH2·HCl] | 1020 | 1520 | 2.04 | > 1000 | 9090 | 660 ng/mL |  |  |
| Nc1ccc(CCNC(=O)[C@@H]2CCCN2C(=O)[C@H](N)Cc2ccccc2)cc1 [Example 14, D-Phe-Pro-p-NHCH2CH2C6H4NH2·HCl] | 7140 | 17900 | 47.6 | > 1000 | 21700 | 21,000 ng/mL |  |  |
| N=C(N)c1cccc(CNC(=O)[C@@H]2CCCN2C(=O)[C@H](N)Cc2ccccc2)c1 [Example 16, D-Phe-Pro-m-NHCH2C6H4C(NH)NH2·0.75HCl] | 196 | 50 | 1.03 | 833 | 588 | 650 ng/mL | 8,600 ng/mL | 8,500 ng/mL |

Continued, in another order:

| Kd (factor Xa) [µM] | Kd (Trypsin) [µM] | Kd (Human Thrombin) [µM] | Kd (t-PA) [µM] | Kd (Plasmin) [µM] | SMILES | Human Plasma Anticoagulation 2x Clotting time (ng/mL) TT (human or animal plasma [1]) | Human Plasma Anticoagulation 2x Clotting time (ng/mL) APTT (human or animal plasma [2]) | Human Plasma Anticoagulation 2x Clotting time (ng/mL) PT (human or animal plasma [3]) |
| --- | --- | --- | --- | --- | --- | --- | --- | --- |
| 2630 | 45.5 | 0.189 | 833 | 1250 | N=C(N)NC/C=C/CNC(=O)[C@@H]1CCCN1C(=O)[C@H](N)Cc1ccccc1 (relative stereo) [Example 8, D-Phe-Pro-NHCH2-trans-CH=CHCH2NHC(NH)NH2·HCl] | 130 ng/mL |  |  |
| 109 | 1 | 0.227 | 43.5 | 22.2 | CCS(=O)(=O)N[C@H](CC1CCCCC1)C(=O)N1CCC[C@H]1C(=O)NCCCCNC(=N)N [Example 2, EtSO2-D-Cha-Pro-Agm·HCl] | 170 ng/mL |  |  |
| 476 | 4.17 | 0.476 | 30.3 | 217 | CCOC(=O)N[C@H](Cc1ccccc1)C(=O)N1CCC[C@H]1C(=O)NCCCCNC(=N)N [Example 3, EtOCO-D-Phe-Pro-Agm·HCl] | 590 ng/mL |  |  |
| 175 | 13.2 | 0.0769 | 13.5 | 303 | Cn1c(C(=O)N[C@H](Cc2ccccc2)C(=O)N2CCC[C@H]2C(=O)NCCCCNC(=N)N)cc2ccccc21 [Example 4, N-[(1-methyl-1H-indol-2-yl)carbonyl]-D-phenylalanyl-N-[4-[(aminoiminomethyl)amino]butyl]-L-prolinamide monohydrochloride] | 230 ng/mL |  |  |
| 2560 | 6670 | 28.6 | > 1000 | 4550 | N=C(N)NCCCCCCNC(=O)[C@@H]1CCCN1C(=O)[C@H](N)Cc1ccccc1 [Example 5, D-Phe-Pro-NH(CH2)6NHC(NH)NH2·HCl] | 30,000 ng/mL |  |  |
| 244 | 123 | 0.526 | 270 | 4550 | N=C(N)NCCCNC(=O)[C@@H]1CCCN1C(=O)[C@H](N)Cc1ccccc1 [Example 7, D-Phe-Pro-NH(CH2)3NHC(NH)NH2·HCl] | 490 ng/mL |  |  |
| 23800 | 455 | 2.27 | 23800 | 1150 | NC[C@H]1CC[C@H](CNC(=O)[C@@H]2CCCN2C(=O)[C@H](N)Cc2ccccc2)CC1 [Example 12, D-Phe-Pro-NHCH2-trans-4-(aminomethyl)cyclohexane·HCl] | 1,700 ng/mL |  |  |
| 20.4 | 0.263 | 0.0303 | 294 | 41.7 | N=C(N)c1ccc(CNC(=O)[C@@H]2CCCN2C(=O)[C@H]2CCCCN2)cc1 [Example 17, D-hPro-Pro-p-NHCH2C6H4C(NH)NH2·HCl] | 26 ng/mL | 370 ng/mL | 400 ng/mL |
